{"source": "PubChem BioAssay (NCI)", "test_in_all_cases": "DTP human tumour cell line panel, 48 h", "key": {"[1]": {"system": "RXF 393 renal"}, "[2]": {"system": "NCI-H460 lung"}, "[3]": {"system": "CCRF-CEM leukemia"}, "[4]": {"system": "SK-MEL-2 melanoma"}, "[5]": {"system": "T-47D breast"}, "[6]": {"system": "HCT-15 colon"}, "[7]": {"system": "PC-3 prostate"}, "[8]": {"system": "EKVX NSCLC"}, "[9]": {"system": "NCI-H23 lung"}, "[10]": {"system": "OVCAR-5 ovarian"}, "[11]": {"system": "A549 NSCLC"}, "[12]": {"system": "MALME-3M melanoma"}, "[13]": {"system": "786-0 renal"}, "[14]": {"system": "SR leukemia"}, "[15]": {"system": "U251 CNS"}, "[16]": {"system": "A498 renal"}, "[17]": {"system": "DU-145 prostate"}, "[18]": {"system": "SK-MEL-5 melanoma"}, "[19]": {"system": "OVCAR-8 ovarian"}, "[20]": {"system": "NCI-H226 lung"}, "[21]": {"system": "SK-MEL-28 melanoma"}, "[22]": {"system": "UACC-257 melanoma"}, "[23]": {"system": "MCF7 breast"}, "[24]": {"system": "MOLT-4 leukemia"}, "[25]": {"system": "HOP-62 NSCLC"}, "[26]": {"system": "HCC-2998 colon"}, "[27]": {"system": "NCI/ADR-RES ovarian"}, "[28]": {"system": "SNB-19 CNS"}, "[29]": {"system": "ACHN renal"}, "[30]": {"system": "MDA-MB-231 breast"}, "[31]": {"system": "M14 melanoma"}, "[32]": {"system": "OVCAR-4 ovarian"}, "[33]": {"system": "SNB-75 CNS"}, "[34]": {"system": "HS 578T breast"}, "[35]": {"system": "SK-OV-3 ovarian"}, "[36]": {"system": "RPMI-8226 leukemia"}, "[37]": {"system": "KM12 colon"}, "[38]": {"system": "HL-60(TB) leukemia"}, "[39]": {"system": "TK-10 renal"}, "[40]": {"system": "HOP-92 NSCLC"}, "[41]": {"system": "HCT-116 colon"}, "[42]": {"system": "COLO 205 colon"}, "[43]": {"system": "SF-539 CNS"}, "[44]": {"system": "BT-549 breast"}, "[45]": {"system": "LOX IMVI melanoma"}, "[46]": {"system": "HT29 colon"}, "[47]": {"system": "SW-620 colon"}, "[48]": {"system": "UACC-62 melanoma"}, "[49]": {"system": "SF-268 CNS"}, "[50]": {"system": "SN12C renal"}}, "note": "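Growth conditions: 96-well plates. Treatment: test compound, 48 hours, 5 concentrations. Analysis: linear interpolation between bracketing concentrations; unreached endpoints set to highest concentration. Abbreviation: GI50, concentration required for 50% inhibition of growth. TGI: total growth inhibition.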"}
{"smiles": "O=C(c1ccc2ccccc2c1)c1c(C(F)(F)F)n([O-])c2ccc(F)cc2[n+]1=O", "values": [{"measurement": "GI50", "setting": "[1]", "result": 0.283, "unit": "µM"}, {"measurement": "TGI", "setting": "[1]", "result": 0.958, "unit": "µM"}, {"measurement": "GI50", "setting": "[2]", "result": 1.83, "unit": "µM"}, {"measurement": "TGI", "setting": "[2]", "result": 3.68, "unit": "µM"}, {"measurement": "GI50", "setting": "[3]", "result": 1.6, "unit": "µM"}, {"measurement": "TGI", "setting": "[3]", "result": 5.26, "unit": "µM"}, {"measurement": "GI50", "setting": "[4]", "result": 1.2, "unit": "µM"}, {"measurement": "TGI", "setting": "[4]", "result": 2.82, "unit": "µM"}, {"measurement": "GI50", "setting": "[5]", "result": 1.56, "unit": "µM"}, {"measurement": "TGI", "setting": "[5]", "result": 4.05, "unit": "µM"}, {"measurement": "GI50", "setting": "[6]", "result": 0.354, "unit": "µM"}, {"measurement": "TGI", "setting": "[6]", "result": 1.26, "unit": "µM"}, {"measurement": "GI50", "setting": "[7]", "result": 1.55, "unit": "µM"}, {"measurement": "TGI", "setting": "[7]", "result": 3.39, "unit": "µM"}, {"measurement": "GI50", "setting": "[8]", "result": 1.8, "unit": "µM"}, {"measurement": "TGI", "setting": "[8]", "result": 3.35, "unit": "µM"}, {"measurement": "GI50", "setting": "[9]", "result": 0.574, "unit": "µM"}, {"measurement": "TGI", "setting": "[9]", "result": 1.91, "unit": "µM"}, {"measurement": "GI50", "setting": "[10]", "result": 1.78, "unit": "µM"}, {"measurement": "TGI", "setting": "[10]", "result": 3.18, "unit": "µM"}, {"measurement": "GI50", "setting": "[11]", "result": 1.8, "unit": "µM"}, {"measurement": "TGI", "setting": "[11]", "result": 3.41, "unit": "µM"}, {"measurement": "GI50", "setting": "[12]", "result": 0.397, "unit": "µM"}, {"measurement": "TGI", "setting": "[12]", "result": 2.3, "unit": "µM"}, {"measurement": "GI50", "setting": "[13]", "result": 1.57, "unit": "µM"}, {"measurement": "TGI", "setting": "[13]", "result": 3.01, "unit": "µM"}, {"measurement": "GI50", "setting": "[14]", "result": 0.277, "unit": "µM"}, {"measurement": "TGI", "setting": "[14]", "result": 1.49, "unit": "µM"}, {"measurement": "GI50", "setting": "[15]", "result": 1.47, "unit": "µM"}, {"measurement": "TGI", "setting": "[15]", "result": 2.81, "unit": "µM"}, {"measurement": "GI50", "setting": "[16]", "result": 6.9, "unit": "µM"}, {"measurement": "TGI", "setting": "[16]", "result": 21, "unit": "µM"}, {"measurement": "GI50", "setting": "[17]", "result": 1.68, "unit": "µM"}, {"measurement": "TGI", "setting": "[17]", "result": 3.12, "unit": "µM"}, {"measurement": "GI50", "setting": "[18]", "result": 1.75, "unit": "µM"}, {"measurement": "TGI", "setting": "[18]", "result": 3.16, "unit": "µM"}, {"measurement": "GI50", "setting": "[19]", "result": 0.324, "unit": "µM"}, {"measurement": "TGI", "setting": "[19]", "result": 1.21, "unit": "µM"}, {"measurement": "GI50", "setting": "[20]", "result": 1.96, "unit": "µM"}, {"measurement": "TGI", "setting": "[20]", "result": 3.97, "unit": "µM"}, {"measurement": "GI50", "setting": "[21]", "result": 1.68, "unit": "µM"}, {"measurement": "TGI", "setting": "[21]", "result": 3.18, "unit": "µM"}, {"measurement": "GI50", "setting": "[22]", "result": 1.74, "unit": "µM"}, {"measurement": "TGI", "setting": "[22]", "result": 3.2, "unit": "µM"}, {"measurement": "GI50", "setting": "[23]", "result": 1.43, "unit": "µM"}, {"measurement": "TGI", "setting": "[23]", "result": 3.31, "unit": "µM"}, {"measurement": "GI50", "setting": "[24]", "result": 0.393, "unit": "µM"}, {"measurement": "TGI", "setting": "[24]", "result": 1.97, "unit": "µM"}, {"measurement": "GI50", "setting": "[25]", "result": 1.91, "unit": "µM"}, {"measurement": "TGI", "setting": "[25]", "result": 3.39, "unit": "µM"}, {"measurement": "GI50", "setting": "[26]", "result": 0.892, "unit": "µM"}, {"measurement": "TGI", "setting": "[26]", "result": 2.12, "unit": "µM"}, {"measurement": "GI50", "setting": "[27]", "result": 2.1, "unit": "µM"}, {"measurement": "TGI", "setting": "[27]", "result": 4.57, "unit": "µM"}, {"measurement": "GI50", "setting": "[28]", "result": 1.51, "unit": "µM"}, {"measurement": "TGI", "setting": "[28]", "result": 3.02, "unit": "µM"}, {"measurement": "GI50", "setting": "[29]", "result": 1.68, "unit": "µM"}, {"measurement": "TGI", "setting": "[29]", "result": 3.04, "unit": "µM"}, {"measurement": "GI50", "setting": "[30]", "result": 1.48, "unit": "µM"}, {"measurement": "TGI", "setting": "[30]", "result": 3.02, "unit": "µM"}, {"measurement": "GI50", "setting": "[31]", "result": 1.67, "unit": "µM"}, {"measurement": "TGI", "setting": "[31]", "result": 3.11, "unit": "µM"}, {"measurement": "GI50", "setting": "[32]", "result": 1.67, "unit": "µM"}, {"measurement": "TGI", "setting": "[32]", "result": 3.22, "unit": "µM"}, {"measurement": "GI50", "setting": "[33]", "result": 1.47, "unit": "µM"}, {"measurement": "TGI", "setting": "[33]", "result": 2.82, "unit": "µM"}, {"measurement": "GI50", "setting": "[34]", "result": 1.98, "unit": "µM"}, {"measurement": "TGI", "setting": "[34]", "result": 4.77, "unit": "µM"}, {"measurement": "GI50", "setting": "[35]", "result": 2.16, "unit": "µM"}, {"measurement": "TGI", "setting": "[35]", "result": 5.05, "unit": "µM"}, {"measurement": "GI50", "setting": "[36]", "result": 0.997, "unit": "µM"}, {"measurement": "TGI", "setting": "[36]", "result": 3.93, "unit": "µM"}, {"measurement": "GI50", "setting": "[37]", "result": 0.673, "unit": "µM"}, {"measurement": "TGI", "setting": "[37]", "result": 2.46, "unit": "µM"}, {"measurement": "GI50", "setting": "[38]", "result": 0.266, "unit": "µM"}, {"measurement": "TGI", "setting": "[38]", "result": 2.23, "unit": "µM"}, {"measurement": "GI50", "setting": "[39]", "result": 1.58, "unit": "µM"}, {"measurement": "TGI", "setting": "[39]", "result": 3.02, "unit": "µM"}, {"measurement": "GI50", "setting": "[40]", "result": 1.21, "unit": "µM"}, {"measurement": "TGI", "setting": "[40]", "result": 2.95, "unit": "µM"}, {"measurement": "GI50", "setting": "[41]", "result": 1.5, "unit": "µM"}, {"measurement": "TGI", "setting": "[41]", "result": 2.97, "unit": "µM"}, {"measurement": "GI50", "setting": "[42]", "result": 0.188, "unit": "µM"}, {"measurement": "TGI", "setting": "[42]", "result": 0.425, "unit": "µM"}, {"measurement": "GI50", "setting": "[43]", "result": 1.88, "unit": "µM"}, {"measurement": "TGI", "setting": "[43]", "result": 3.32, "unit": "µM"}, {"measurement": "GI50", "setting": "[44]", "result": 1.75, "unit": "µM"}, {"measurement": "TGI", "setting": "[44]", "result": 3.22, "unit": "µM"}, {"measurement": "GI50", "setting": "[45]", "result": 0.394, "unit": "µM"}, {"measurement": "TGI", "setting": "[45]", "result": 1.66, "unit": "µM"}, {"measurement": "GI50", "setting": "[46]", "result": 1.36, "unit": "µM"}, {"measurement": "TGI", "setting": "[46]", "result": 3.02, "unit": "µM"}, {"measurement": "GI50", "setting": "[47]", "result": 1.5, "unit": "µM"}, {"measurement": "TGI", "setting": "[47]", "result": 3.2, "unit": "µM"}, {"measurement": "GI50", "setting": "[48]", "result": 1.6, "unit": "µM"}, {"measurement": "TGI", "setting": "[48]", "result": 2.95, "unit": "µM"}, {"measurement": "GI50", "setting": "[49]", "result": 1.73, "unit": "µM"}, {"measurement": "TGI", "setting": "[49]", "result": 3.37, "unit": "µM"}, {"measurement": "GI50", "setting": "[50]", "result": 1.29, "unit": "µM"}, {"measurement": "TGI", "setting": "[50]", "result": 2.74, "unit": "µM"}]}
